System: DMS-114 complex spheroids with HUVEC/MSC, growth % test/control
Test: Anticancer human tumor DMS-114 cell line growth inhibition [AhR];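 also: spheroids exposed to agents for 7 days before readout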;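 as to viability, T/C: 100% = DMSO vehicle control wells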
Conditions: for IC50: curve of first compound; for viability, T/C: stronger effect = lower value
How it was run: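 Agents were dosed in half-log steps down from roughly clinical Cmax, or from 10 microM where Cmax was unknown, alone and with AhR antagonists. Read-out: percent test/control growth of tumor spheroids containing HUVEC and MSC stromal cells.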

[1] = second compound 0.1 µM, first compound 0.0316 µM
[2] = second compound 0.1 µM, first compound 0.1 µM
[3] = second compound 0.1 µM, first compound 0.316 µM
[4] = second compound 0.1 µM, first compound 1 µM
[5] = second compound 0.1 µM, first compound 3.16 µM
[6] = second compound 0.1 µM, first compound 10 µM
[7] = second compound 0.316 µM, first compound 0.0316 µM
[8] = second compound 0.316 µM, first compound 0.1 µM
[9] = second compound 0.316 µM, first compound 0.316 µM
[10] = second compound 0.316 µM, first compound 1 µM
[11] = second compound 0.316 µM, first compound 3.16 µM
[12] = second compound 0.316 µM, first compound 10 µM
[13] = second compound 1 µM, first compound 0.0316 µM
[14] = second compound 1 µM, first compound 0.1 µM
[15] = second compound 1 µM, first compound 0.316 µM
[16] = second compound 1 µM, first compound 1 µM
[17] = second compound 1 µM, first compound 3.16 µM
[18] = second compound 1 µM, first compound 10 µM
[19] = second compound 3.16 µM, first compound 0.0316 µM
[20] = second compound 3.16 µM, first compound 0.1 µM
[21] = second compound 3.16 µM, first compound 0.316 µM
[22] = second compound 3.16 µM, first compound 1 µM
[23] = second compound 3.16 µM, first compound 3.16 µM
[24] = second compound 3.16 µM, first compound 10 µM
[25] = second compound 10 µM, first compound 0.0316 µM
[26] = second compound 10 µM, first compound 0.1 µM
[27] = second compound 10 µM, first compound 0.316 µM
[28] = second compound 10 µM, first compound 1 µM
[29] = second compound 10 µM, first compound 3.16 µM
[30] = second compound 10 µM, first compound 10 µM

CC(C)c1c(-c2ccccc2)nc2c(C#N)c[nH]n2c1=O + CC(CO)NC(=O)c1cc(-c2ccc(Cl)cc2)nn(-c2cnn(C)c2)c1=O
IC50 (second compound 0.1 µM): > 10000 nM
IC50 (second compound 0.316 µM): > 10000 nM
IC50 (second compound 1 µM): > 10000 nM
IC50 (second compound 3.16 µM): > 10000 nM
IC50 (second compound 10 µM): > 10000 nM
viability, T/C [1]: 93.8%
viability, T/C [2]: 95.8%
viability, T/C [3]: 93.8%
viability, T/C [4]: 95.7%
viability, T/C [5]: 113%
viability, T/C [6]: 108%
viability, T/C [7]: 96.8%
viability, T/C [8]: 98.5%
viability, T/C [9]: 101%
viability, T/C [10]: 98.9%
viability, T/C [11]: 110%
viability, T/C [12]: 113%
viability, T/C [13]: 93.7%
viability, T/C [14]: 100%
viability, T/C [15]: 89.6%
viability, T/C [16]: 97.7%
viability, T/C [17]: 97.3%
viability, T/C [18]: 103%
viability, T/C [19]: 103%
viability, T/C [20]: 96.6%
viability, T/C [21]: 95.1%
viability, T/C [22]: 94.6%
viability, T/C [23]: 92.3%
viability, T/C [24]: 105%
viability, T/C [25]: 103%
viability, T/C [26]: 105%
viability, T/C [27]: 96.1%
viability, T/C [28]: 104%
viability, T/C [29]: 99.5%
viability, T/C [30]: 113%

CC1COCCN1c1cc(-c2ccnn2C)c2ccnc(-c3ccn[nH]3)c2n1 (stereo not given) + CC(CO)NC(=O)c1cc(-c2ccc(Cl)cc2)nn(-c2cnn(C)c2)c1=O
IC50 (second compound 0.1 µM): 50.8 nM
IC50 (second compound 0.316 µM): 65 nM
IC50 (second compound 1 µM): 34.2 nM
IC50 (second compound 3.16 µM): 33.6 nM
IC50 (second compound 10 µM): 21.1 nM
viability, T/C (second compound 0.1 µM, first compound 0.00316 µM): 90.1%
viability, T/C (second compound 0.1 µM, first compound 0.01 µM): 82%
viability, T/C [1]: 59.1%
viability, T/C [2]: 34.4%
viability, T/C [3]: 27.9%
viability, T/C [4]: 15.8%
viability, T/C (second compound 0.316 µM, first compound 0.00316 µM): 93%
viability, T/C (second compound 0.316 µM, first compound 0.01 µM): 89.1%
viability, T/C [7]: 60.1%
viability, T/C [8]: 42.7%
viability, T/C [9]: 26.2%
viability, T/C [10]: 15.2%
viability, T/C (second compound 1 µM, first compound 0.00316 µM): 85.3%
viability, T/C (second compound 1 µM, first compound 0.01 µM): 94.4%
viability, T/C [13]: 51.8%
viability, T/C [14]: 34.4%
viability, T/C [15]: 27.6%
viability, T/C [16]: 14.6%
viability, T/C (second compound 3.16 µM, first compound 0.00316 µM): 84.8%
viability, T/C (second compound 3.16 µM, first compound 0.01 µM): 73.7%
viability, T/C [19]: 49.4%
viability, T/C [20]: 31.6%
viability, T/C [21]: 22.3%
viability, T/C [22]: 13.9%
viability, T/C (second compound 10 µM, first compound 0.00316 µM): 86.8%
viability, T/C (second compound 10 µM, first compound 0.01 µM): 63.2%
viability, T/C [25]: 42.2%
viability, T/C [26]: 29.6%
viability, T/C [27]: 24.1%
viability, T/C [28]: 14.8%

COc1ccc([C@@H](O)c2cc(-c3ncnc4cc(N5CCOCC5)ccc34)c(F)cc2Cl)nn1 + CC(CO)NC(=O)c1cc(-c2ccc(Cl)cc2)nn(-c2cnn(C)c2)c1=O
IC50 (second compound 0.1 µM): > 10000 nM
IC50 (second compound 0.316 µM): > 10000 nM
IC50 (second compound 1 µM): > 10000 nM
IC50 (second compound 3.16 µM): > 10000 nM
IC50 (second compound 10 µM): > 10000 nM
viability, T/C [1]: 98.8%
viability, T/C [2]: 100%
viability, T/C [3]: 100%
viability, T/C [4]: 105%
viability, T/C [5]: 108%
viability, T/C [6]: 61%
viability, T/C [7]: 98.5%
viability, T/C [8]: 96.2%
viability, T/C [9]: 90.4%
viability, T/C [10]: 94.9%
viability, T/C [11]: 101%
viability, T/C [12]: 63.3%
viability, T/C [13]: 92%
viability, T/C [14]: 95.5%
viability, T/C [15]: 96.7%
viability, T/C [16]: 107%
viability, T/C [17]: 98.3%
viability, T/C [18]: 63.8%
viability, T/C [19]: 108%
viability, T/C [20]: 99.8%
viability, T/C [21]: 91.9%
viability, T/C [22]: 103%
viability, T/C [23]: 104%
viability, T/C [24]: 64.2%
viability, T/C [25]: 104%
viability, T/C [26]: 97.5%
viability, T/C [27]: 95.1%
viability, T/C [28]: 87.5%
viability, T/C [29]: 81.2%
viability, T/C [30]: 55.2%

O=C(C=Cn1cnc(-c2cc(C(F)(F)F)cc(C(F)(F)F)c2)n1)NNc1cnccn1 + CC(CO)NC(=O)c1cc(-c2ccc(Cl)cc2)nn(-c2cnn(C)c2)c1=O
IC50 (second compound 0.1 µM): 183 nM
IC50 (second compound 0.316 µM): 156 nM
IC50 (second compound 1 µM): 169 nM
IC50 (second compound 3.16 µM): 180 nM
IC50 (second compound 10 µM): 209 nM
viability, T/C (second compound 0.1 µM, first compound 0.00949 µM): 103%
viability, T/C (second compound 0.1 µM, first compound 0.03 µM): 99.2%
viability, T/C (second compound 0.1 µM, first compound 0.0949 µM): 63.3%
viability, T/C (second compound 0.1 µM, first compound 0.3 µM): 38.2%
viability, T/C (second compound 0.1 µM, first compound 0.949 µM): 18.7%
viability, T/C (second compound 0.1 µM, first compound 3 µM): 7.72%
viability, T/C (second compound 0.316 µM, first compound 0.00949 µM): 97.8%
viability, T/C (second compound 0.316 µM, first compound 0.03 µM): 93.9%
viability, T/C (second compound 0.316 µM, first compound 0.0949 µM): 57.2%
viability, T/C (second compound 0.316 µM, first compound 0.3 µM): 36.1%
viability, T/C (second compound 0.316 µM, first compound 0.949 µM): 16.8%
viability, T/C (second compound 0.316 µM, first compound 3 µM): 7.29%
viability, T/C (second compound 1 µM, first compound 0.00949 µM): 85.8%
viability, T/C (second compound 1 µM, first compound 0.03 µM): 97.2%
viability, T/C (second compound 1 µM, first compound 0.0949 µM): 59.4%
viability, T/C (second compound 1 µM, first compound 0.3 µM): 37%
viability, T/C (second compound 1 µM, first compound 0.949 µM): 16.4%
viability, T/C (second compound 1 µM, first compound 3 µM): 8.32%
viability, T/C (second compound 3.16 µM, first compound 0.00949 µM): 97.1%
viability, T/C (second compound 3.16 µM, first compound 0.03 µM): 121%
viability, T/C (second compound 3.16 µM, first compound 0.0949 µM): 54.1%
viability, T/C (second compound 3.16 µM, first compound 0.3 µM): 43.9%
viability, T/C (second compound 3.16 µM, first compound 0.949 µM): 17.7%
viability, T/C (second compound 3.16 µM, first compound 3 µM): 6.66%
viability, T/C (second compound 10 µM, first compound 0.00949 µM): 95.2%
viability, T/C (second compound 10 µM, first compound 0.03 µM): 96.4%
viability, T/C (second compound 10 µM, first compound 0.0949 µM): 64.2%
viability, T/C (second compound 10 µM, first compound 0.3 µM): 44%
viability, T/C (second compound 10 µM, first compound 0.949 µM): 18.4%
viability, T/C (second compound 10 µM, first compound 3 µM): 9.22%

From PubChem BioAssay AID1919008 (Molecular Pharmacology Branch, DTP, NCI, 2023)
